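Five compound concentrations were applied to cells in 96-well plates for 48 hours; endpoints were derived by simple linear interpolation of the resulting dose-response curve. Here, GI50 denotes the concentration required for 50% inhibition of growth.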 Active and inactive are the calls of the source. Rule as the data show it: active = GI50 up to about 1.1 µM and inactive = higher.
Key:
Assay in all cases: NCI-60 cell line screen, 48 h
[1] = test system: A549
[2] = test system: SF-539
[3] = test system: MOLT-4
[4] = test system: SNB-75
[5] = test system: SF-268
[6] = test system: NCI/ADR-RES
[7] = test system: EKVX
[8] = test system: UACC-62
[9] = test system: PC-3
[10] = test system: HL-60
[11] = test system: KM12
[12] = test system: LOX IMVI
[13] = test system: BT-549
[14] = test system: A498
[15] = test system: HCC 2998
[16] = test system: HT-29
[17] = test system: HOP-92
[18] = test system: Hs-578T
[19] = test system: SK-MEL-28

Measured: GI50

CC1CC[C@@H](C(C)C)[C@H](Oc2nnc(C3OC(CO)C(O)C3O)o2)C1 (stereo partly specified)
inactive: [1] > 100 µM | [2] > 100 µM | [3] > 100 µM | [4] > 100 µM | [5] > 100 µM | [6] > 100 µM | [7] > 100 µM | [8] > 100 µM | [9] > 100 µM | [10] > 100 µM | [11] > 100 µM | [12] > 100 µM | [13] > 100 µM | [14] > 100 µM | [15] > 100 µM | [16] > 100 µM | [17] > 100 µM

O=[N+]([O-])c1ccc(/C=C(/c2ccc([N+](=O)[O-])o2)S(=O)(=O)c2ccccc2)cc1
inactive: [1] > 100 µM | [2] 33.7 µM | [18] 26.1 µM | [3] 16.8 µM | [4] > 100 µM | [19] > 100 µM | [5] 95.9 µM | [6] 47.5 µM | [8] 22.2 µM | [9] > 100 µM | [10] 17.5 µM | [11] 41.1 µM | [13] 36.1 µM | [16] 41.1 µM | [17] > 100 µM

C#CC(C)(C)OC(=O)C(=[N+]=[N-])C(C)=O
inactive: [1] > 10 µM | [2] > 10 µM | [18] > 10 µM | [3] > 10 µM | [4] > 10 µM | [19] > 10 µM | [5] > 10 µM | [7] > 10 µM | [8] > 10 µM | [9] > 10 µM | [10] > 10 µM | [11] > 10 µM | [12] > 10 µM | [13] > 10 µM | [14] > 10 µM | [15] > 10 µM | [16] > 10 µM | [17] > 10 µM

N#Cc1c(-c2cccc(Br)c2)cc(-c2ccc(Cl)cc2)nc1N
inactive: [1] 21 µM | [2] 18.1 µM | [18] 19.1 µM | [3] 15.8 µM | [5] 24.8 µM | [6] 22.2 µM | [7] 10.5 µM | [8] 15.3 µM | [9] 22.2 µM | [10] 31 µM | [11] 20.9 µM | [12] 15.8 µM | [13] 33 µM | [15] 17.3 µM | [16] 18.7 µM | [17] 11.2 µM

COC(=O)c1sc2ncc3c(c2c1N)CCCCCC3
inactive: [1] > 100 µM | [2] > 100 µM | [3] > 100 µM | [4] 97.3 µM | [19] > 100 µM | [5] > 100 µM | [6] > 100 µM | [7] > 100 µM | [8] > 100 µM | [9] > 100 µM | [11] > 100 µM | [12] > 100 µM | [13] > 100 µM | [14] > 100 µM | [15] > 100 µM | [16] > 100 µM | [17] > 100 µM

CCOC(=O)C1=c2[nH]c3cccc4cccc(c43)n2C=C(C(C)=O)C1CC(C)=O (stereo unspecified)
inactive: [1] 46.2 µM | [3] > 100 µM | [4] > 100 µM | [19] > 100 µM | [6] > 100 µM | [7] > 100 µM | [8] > 100 µM | [9] > 100 µM | [10] 12.3 µM | [11] > 100 µM | [12] 43.2 µM | [13] > 100 µM | [14] 86.1 µM | [15] 62.7 µM | [17] 36.6 µM

CSC1=N/C(=C\c2ccc(C)cc2)C(=O)N1
inactive: [1] > 100 µM | [2] 41.9 µM | [18] 32.6 µM | [3] 81.5 µM | [4] 47.4 µM | [19] > 100 µM | [5] 59.6 µM | [6] > 100 µM | [7] 52.8 µM | [8] 89.3 µM | [9] 94.6 µM | [10] 54.8 µM | [11] > 100 µM | [12] 57.3 µM | [13] 37.8 µM | [15] 66.2 µM | [16] > 100 µM | [17] 50.9 µM

COC(=O)C(=O)c1cc2ccccc2n1S(=O)(=O)c1ccccc1
inactive: [1] > 100 µM | [2] > 100 µM | [3] > 100 µM | [4] 84.5 µM | [19] > 100 µM | [5] > 100 µM | [6] > 100 µM | [7] > 100 µM | [8] > 100 µM | [9] > 100 µM | [10] > 100 µM | [11] > 100 µM | [12] > 100 µM | [13] > 100 µM | [14] > 100 µM | [15] > 100 µM | [16] > 100 µM | [17] > 100 µM

O=c1c2nc3ccccc3c(=O)n2ncn1-c1ccccc1Cl
inactive: [1] > 100 µM | [2] > 100 µM | [18] > 100 µM | [4] > 100 µM | [19] > 100 µM | [5] > 100 µM | [7] > 100 µM | [8] > 100 µM | [9] > 100 µM | [10] > 100 µM | [11] > 100 µM | [12] > 100 µM | [13] > 100 µM | [14] > 100 µM | [15] > 100 µM | [16] > 100 µM | [17] > 100 µM

O=P(c1ccccc1)(c1ccccc1)c1ccc2c(c1)OCCOCCOCCOCCO2
inactive: [1] > 100 µM | [2] > 100 µM | [18] > 100 µM | [3] > 100 µM | [4] > 100 µM | [19] > 100 µM | [5] > 100 µM | [7] > 100 µM | [8] > 100 µM | [9] > 100 µM | [10] > 100 µM | [11] > 100 µM | [12] > 100 µM | [13] > 100 µM | [14] > 100 µM | [15] > 100 µM

O=[N+]([O-])c1ccc(-n2nc3ccc4c(no[n+]4[O-])c3n2)cc1
inactive: [1] 12.4 µM | [2] > 100 µM | [18] > 100 µM | [3] 74.6 µM | [4] 61.7 µM | [19] > 100 µM | [5] > 100 µM | [6] > 100 µM | [7] 24.8 µM | [8] 88.3 µM | [9] 5.55 µM | [10] 7.35 µM | [11] > 100 µM | [12] > 100 µM | [13] > 100 µM | [15] > 100 µM | [16] > 100 µM | [17] 5.82 µM

Fc1ccc(Oc2nc3ccc(C(F)(F)F)cc3nc2-c2ccccc2)cc1
inactive: [1] 36.6 µM | [2] 30.8 µM | [18] 28.2 µM | [3] 46 µM | [4] 27.9 µM | [5] > 100 µM | [6] > 100 µM | [7] > 100 µM | [8] 39.8 µM | [9] > 100 µM | [10] 87.3 µM | [11] > 100 µM | [12] > 100 µM | [13] > 100 µM | [15] 14.5 µM | [16] 32.1 µM

From ChEMBL document CHEMBL1201862, “PubChem BioAssay data set” (2004)
